One block for each molecule: values may come before it.
Assays:
Format in all cases: binding
FZD8 = biological target: T1, FZD8 (Homo sapiens, UniProt Q9H461); test: NanoBRET screen HiBiT-FZD8 in HEK293
T1 construct: purchased Promega (in-house HiBiT-GPCR construct library, NanoBRET)
Procedure: (§1) Each tracer candidate was screened across the entire library of HiBiT-GPCR constructs using NanoBRET as the detection modality. As depicted in Figure 4A, the specificity of interactions was evaluated through decrease in BRET due to competitive displacement of a bound tracer by excess parental compound. Each tracer was analyzed for binding to each HiBiT-GPCR fusion in the absence and in the presence of competing parental compound. Briefly, HEK293 cells were transfected with HiBiT-GPCR constructs diluted into promoterless DNA to reduce expression and maximize translocation to the cell surface. Each tracer candidate was then screened at concentrations of 1 μM and 0.1 μM across cells expressing these fusions. Cells were treated for 1.5 h with tracer either alone or in the presence of 20 μM competing parental compound (i.e., control). BRET was measured upon addition of purified LgBiT and subsequent complementation with HiBiT genetically fused to a GPCR. The specificity of interactions was assessed through a decrease in BRET signal due to competitive displacement of the bound tracer. To further gauge the robustness of these interactions, the fold response over the control (i.e., BRETtracer/BRETcontrol) was calculated. We chose a 1.5-fold response, which translates to ≥7-fold signal over noise as the minimal threshold required to score an interaction as positive. […]. Below we highlight the screening results obtained for our exemplary fluorescent tracers based on Clozapine, Amitriptyline and AZD1283.
(§2) HiBiT-GPCR DNA constructs were diluted in 10 mM Tris pH 8 to a final concentration of 0.01 μg/μL, arrayed in 96-well plates and stored at −20 °C. For transfection, HEK293 cells were suspended in Opti-MEM (without phenol red) supplemented with 2% fetal bovine serum (Seradigm) and 100 units/mL penicillin–streptomycin (Gibco) at a final concentration of 220,000 cells/mL and dispensed into white 96-well plates at 90 μL/well. Subsequent transfections and screens were carried using an Agilent Bravo Automated Liquid Handling Platform. First, the 96-well HiBiT DNA arrays were diluted 25-fold in Opti-MEM (without serum or phenol red) to a final concentration of 0.0004 μg/μL and 20 μL of the diluted DNAs were transferred into new 96-well plates. Next, promoterless carrier DNA (1 μg/μL) was diluted 25-fold (0.04 μg/μL) and then dispensed into the diluted arrays at 20 μL/well. Following brief mixing, Viafect transfection reagent (Promega) diluted 16-fold into Opti-MEM was dispensed into the plates at 40 μL/well. After mixing by pipetting, plates were incubated for 10 min on the pipetting station deck. The DNA-transfection reagent complexes were then added to plates containing cells. To facilitate the screen, 10 μL of DNA-transfection reagent complexes were added in duplicates to the top 4 and bottom 4 rows, resulting in two identical 48-well arrays per plate. Plates with transfected cells were incubated for 18–20 h at 37 °C/5% CO2. A screen of each tracer across the entire library using two different concentrations requires duplicate plates of transfected cells. Depending on the number of tracers being screened, transfections can be scaled up using the same ratios. The next day, for each tracer, four 20× screening solutions in tracer dilution buffer (Promega) were prepared: two duplicates at final concentration of 20 μM and two duplicates at a final concentration of 2 μM. A competing unmodified compound was added to one of each duplicate at a final concentration of 400 μM. The four resulting solutions were diluted 4-fold in Opti-MEM without serum or phenol red to generate 5× solutions (5 µM and 0.5 µM tracer +/− 100 μM competing compound). To screen the library, a BioTek MultiFlo FX liquid dispenser was used to dispense 22.5 µL of tracer solution to the top 4 rows and 22.5 µL tracer + competing compound solution to the 4 bottom rows. Plates were briefly mixed on an orbital shaker and incubated for 1.5 h at room temperature. […]

NMUR2 = biological target: T2, NMUR2 (Homo sapiens, UniProt Q9GZQ4); test: NanoBRET screen HiBiT-NMUR2 in HEK293
T2 construct: purchased Promega (in-house HiBiT-GPCR construct library, NanoBRET)
Procedure: as §1, §2

PTGER3 = biological target: T3, PTGER3 (Homo sapiens, UniProt P43115); test: NanoBRET screen HiBiT-PTGER3 in HEK293
T3 construct: purchased Promega (in-house HiBiT-GPCR construct library, NanoBRET)
T3 sequence (P43115 1-390): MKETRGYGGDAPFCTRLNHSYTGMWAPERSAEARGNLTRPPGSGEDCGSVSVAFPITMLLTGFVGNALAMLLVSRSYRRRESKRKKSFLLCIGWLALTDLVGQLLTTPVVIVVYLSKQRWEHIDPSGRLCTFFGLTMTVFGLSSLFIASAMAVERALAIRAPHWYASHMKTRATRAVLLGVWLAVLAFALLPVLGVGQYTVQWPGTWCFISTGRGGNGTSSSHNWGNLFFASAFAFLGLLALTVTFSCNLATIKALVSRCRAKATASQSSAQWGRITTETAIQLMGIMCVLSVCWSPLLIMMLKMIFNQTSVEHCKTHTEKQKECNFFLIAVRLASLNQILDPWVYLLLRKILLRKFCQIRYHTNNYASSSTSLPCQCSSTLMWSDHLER
Procedure: as §1, §2

FZD6 = biological target: T4, FZD6 (Homo sapiens, UniProt O60353); test: NanoBRET screen HiBiT-FZD6 in HEK293
T4 construct: purchased Promega (in-house HiBiT-GPCR construct library, NanoBRET)
T4 sequence (O60353 19-706): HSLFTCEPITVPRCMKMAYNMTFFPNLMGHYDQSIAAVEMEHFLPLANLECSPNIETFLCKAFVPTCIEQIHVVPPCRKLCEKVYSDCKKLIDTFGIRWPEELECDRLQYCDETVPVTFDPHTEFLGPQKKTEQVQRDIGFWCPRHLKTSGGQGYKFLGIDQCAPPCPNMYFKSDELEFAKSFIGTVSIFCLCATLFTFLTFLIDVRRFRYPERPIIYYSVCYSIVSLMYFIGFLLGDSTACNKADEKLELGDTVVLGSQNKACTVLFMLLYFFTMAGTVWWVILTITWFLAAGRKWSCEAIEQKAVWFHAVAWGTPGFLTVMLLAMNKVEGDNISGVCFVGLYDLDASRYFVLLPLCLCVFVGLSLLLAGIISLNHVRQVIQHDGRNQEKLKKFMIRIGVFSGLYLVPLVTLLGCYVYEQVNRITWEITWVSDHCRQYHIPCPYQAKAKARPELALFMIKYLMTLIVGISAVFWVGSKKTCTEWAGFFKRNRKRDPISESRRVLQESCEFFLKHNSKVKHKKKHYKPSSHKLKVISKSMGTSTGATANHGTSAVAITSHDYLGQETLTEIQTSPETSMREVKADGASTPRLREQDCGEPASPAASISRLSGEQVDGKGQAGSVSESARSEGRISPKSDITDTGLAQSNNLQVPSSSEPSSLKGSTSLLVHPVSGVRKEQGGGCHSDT
Procedure: as §1, §2

[1] = tracer at 0.1μM, listed as amitriptyline-b-2-NB590

T1 sequence (Q9H461 28-694): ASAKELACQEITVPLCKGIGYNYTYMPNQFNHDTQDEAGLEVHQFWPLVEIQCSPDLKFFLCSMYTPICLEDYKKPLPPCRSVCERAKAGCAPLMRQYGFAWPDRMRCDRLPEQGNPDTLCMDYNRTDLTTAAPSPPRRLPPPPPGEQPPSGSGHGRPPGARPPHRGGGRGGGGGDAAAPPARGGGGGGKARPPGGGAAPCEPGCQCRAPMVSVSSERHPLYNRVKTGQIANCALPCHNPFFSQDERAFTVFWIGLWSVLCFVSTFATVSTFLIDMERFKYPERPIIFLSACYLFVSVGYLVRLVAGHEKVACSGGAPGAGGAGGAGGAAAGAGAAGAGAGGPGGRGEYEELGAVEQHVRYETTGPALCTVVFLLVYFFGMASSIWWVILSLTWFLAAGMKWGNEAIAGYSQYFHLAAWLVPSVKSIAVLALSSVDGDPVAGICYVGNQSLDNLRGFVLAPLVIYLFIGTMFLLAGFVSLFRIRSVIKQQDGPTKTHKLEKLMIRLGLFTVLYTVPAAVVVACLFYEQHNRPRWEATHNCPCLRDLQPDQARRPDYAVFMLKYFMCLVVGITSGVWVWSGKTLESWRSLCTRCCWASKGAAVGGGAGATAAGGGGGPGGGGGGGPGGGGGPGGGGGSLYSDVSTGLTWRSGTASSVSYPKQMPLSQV
T2 sequence (Q9GZQ4 whole entry): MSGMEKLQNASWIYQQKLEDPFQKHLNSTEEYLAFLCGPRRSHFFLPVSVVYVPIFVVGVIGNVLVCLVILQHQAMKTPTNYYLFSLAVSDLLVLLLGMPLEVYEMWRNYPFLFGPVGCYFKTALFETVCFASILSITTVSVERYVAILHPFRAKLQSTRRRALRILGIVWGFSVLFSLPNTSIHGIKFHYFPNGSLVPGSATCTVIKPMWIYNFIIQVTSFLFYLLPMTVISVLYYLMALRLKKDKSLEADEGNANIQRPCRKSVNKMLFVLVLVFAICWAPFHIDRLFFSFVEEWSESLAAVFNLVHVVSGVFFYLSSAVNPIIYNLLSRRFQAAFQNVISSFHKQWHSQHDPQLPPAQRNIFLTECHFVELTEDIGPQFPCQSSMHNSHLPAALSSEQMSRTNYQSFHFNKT

- NanoBRET Fold Response (FZD8; FZD8, tracer 0.1μM): 0.98
- NanoBRET Fold Response (FZD8; FZD8, tracer 1μM): 1.01
- NanoBRET Fold Response (NMUR2; NMUR2, tracer 0.1μM): 1.02
- NanoBRET Fold Response (NMUR2; NMUR2, tracer 1μM): 1.05
- NanoBRET Fold Response (PTGER3; PTGER3, tracer 0.1μM): 1.01
- NanoBRET Fold Response (PTGER3; PTGER3, tracer 1μM): 1.01
- NanoBRET Fold Response (FZD6; FZD6, tracer 0.1μM): 1.03
- NanoBRET Fold Response (FZD6; FZD6, tracer 1μM): 1.03
SMILES: N#CN=C(NCCCOc1cccc(CN2CCCCC2)c1)NCCNC(=O)CCOCCOCCOCCOCCNC(=O)CCc1ccc2n1[B-](F)(F)[N+]1=C(c3ccc[nH]3)C=CC1=C2 [Aminopotentidine-2-NB590]

- NanoBRET Fold Response (FZD8; FZD8, 0.1μM): 1.11
- NanoBRET Fold Response (FZD8; FZD8, 1μM): 0.71
- NanoBRET Fold Response (NMUR2; NMUR2, 0.1μM): 1.01
- NanoBRET Fold Response (NMUR2; NMUR2, 1μM): 0.86
- NanoBRET Fold Response (PTGER3; PTGER3, 0.1μM): 1.08
- NanoBRET Fold Response (PTGER3; PTGER3, 1μM): 1.10
- NanoBRET Fold Response (FZD6; FZD6, 0.1μM): 1.01
- NanoBRET Fold Response (FZD6; FZD6, 1μM): 0.35
SMILES: CCOC(=O)c1cc(C#N)c(N2CCC(C(=O)NS(=O)(=O)Cc3ccccc3/C=C/C(=O)NCCNC(=O)CCc3ccc4n3[B-](F)(F)[N+]3=C(c5ccc[nH]5)C=CC3=C4)CC2)nc1C [AZD1283-1-NB590]

SMILES: CN(C)CCC=C1c2ccccc2CCc2ccc(C(=O)NCCNC(=O)CCOCCOCCOCCOCCNC(=O)CCc3ccc4n3[B-](F)(F)[N+]3=C(c5ccc[nH]5)C=CC3=C4)cc21 [Amitriptyline-b-2-NB590]
- NanoBRET Fold Response (FZD8; tracer at 0.1μM): 1.03
- NanoBRET Fold Response (FZD8; tracer at 1μM): 1.00
- NanoBRET Fold Response (NMUR2; [1]): 0.99
- NanoBRET Fold Response (NMUR2; tracer at 1μM, listed as amitriptyline-b-2-NB590): 1.00
- NanoBRET Fold Response (PTGER3; tracer at 0.1μM): 0.96
- NanoBRET Fold Response (PTGER3; tracer at 1μM): 1.01
- NanoBRET Fold Response (FZD6; [1]): 1.00
- NanoBRET Fold Response (FZD6; tracer at 1μM): 0.98

SMILES: O=C(CCc1ccc2n1[B-](F)(F)[N+]1=C(c3ccc[nH]3)C=CC1=C2)NCCOCCOCCNC(=O)OCCOCCN1CCN(C2=Nc3ccccc3Sc3ccccc32)CC1 [Quetiapine-a-2-NB590]
- NanoBRET Fold Response (FZD8; FZD8, tracer 0.1μM): 1.02
- NanoBRET Fold Response (FZD8; FZD8, tracer 1μM): 1.08
- NanoBRET Fold Response (NMUR2; NMUR2, tracer 0.1μM): 1.02
- NanoBRET Fold Response (NMUR2; NMUR2, tracer 1μM): 0.82
- NanoBRET Fold Response (PTGER3; PTGER3, tracer 0.1μM): 0.97
- NanoBRET Fold Response (PTGER3; PTGER3, tracer 1μM): 1.04
- NanoBRET Fold Response (FZD6; FZD6, tracer 0.1μM): 1.01
- NanoBRET Fold Response (FZD6; FZD6, tracer 1μM): 1.15

SMILES: Cc1cc2c(s1)Nc1ccccc1N=C2N1CCN(CCCNC(=O)CCOCCOCCOCCOCCNC(=O)CCc2ccc3n2[B-](F)(F)[N+]2=C(c4ccc[nH]4)C=CC2=C3)CC1 [Olanzapine-a-2-NB590]
- NanoBRET Fold Response (FZD8; FZD8, tracer 0.1μM): 0.95
- NanoBRET Fold Response (FZD8; FZD8, tracer 1μM): 0.94
- NanoBRET Fold Response (NMUR2; NMUR2, tracer 0.1μM): 0.94
- NanoBRET Fold Response (NMUR2; NMUR2, tracer 1μM): 0.98
- NanoBRET Fold Response (PTGER3; PTGER3, tracer 0.1μM): 1.00
- NanoBRET Fold Response (PTGER3; PTGER3, tracer 1μM): 0.95
- NanoBRET Fold Response (FZD6; FZD6, tracer 0.1μM): 1.03
- NanoBRET Fold Response (FZD6; FZD6, tracer 1μM): 0.98

SMILES: CN1CCN(C2=Nc3cc(Cl)ccc3Nc3ccc(CNC(=O)CCOCCOCCOCCOCCNC(=O)CCc4ccc5n4[B-](F)(F)[N+]4=C(c6ccc[nH]6)C=CC4=C5)cc32)CC1 [Clozapine-b-2-NB590]
- NanoBRET Fold Response (FZD8; FZD8, 0.1μM tracer): 1.00
- NanoBRET Fold Response (FZD8; FZD8, 1μM tracer): 1.02
- NanoBRET Fold Response (NMUR2; NMUR2, 0.1μM tracer): 0.97
- NanoBRET Fold Response (NMUR2; NMUR2, 1μM tracer): 1.00
- NanoBRET Fold Response (PTGER3; PTGER3, 0.1μM tracer): 0.97
- NanoBRET Fold Response (PTGER3; PTGER3, 1μM tracer): 0.97
- NanoBRET Fold Response (FZD6; FZD6, 0.1μM tracer): 1.03
- NanoBRET Fold Response (FZD6; FZD6, 1μM tracer): 1.04

- NanoBRET Fold Response (FZD8; 0.1μM tracer): 1.39
- NanoBRET Fold Response (FZD8; 1μM tracer): 0.81
- NanoBRET Fold Response (NMUR2; 0.1μM tracer): 1.00
- NanoBRET Fold Response (NMUR2; 1μM tracer): 1.16
- NanoBRET Fold Response (PTGER3; 0.1μM tracer): 1.00
- NanoBRET Fold Response (PTGER3; 1μM tracer): 1.25
- NanoBRET Fold Response (FZD6; 0.1μM tracer): 1.09
- NanoBRET Fold Response (FZD6; 1μM tracer): 0.86
SMILES: COc1ccc2c(n1)c(CCNC(C)=O)cn2CCNC(=O)CCc1ccc2n1[B-](F)(F)[N+]1=C(c3ccc[nH]3)C=CC1=C2 [Azamelatonin-1-NB590]

SMILES: O=C(CCc1ccc2n1[B-](F)(F)[N+]1=C(c3ccc[nH]3)C=CC1=C2)NCc1ccc(C(=O)NCCOCCOCCNCC(O)COc2cccc3ccccc23)cc1 (stereo not drawn) [Propranolol-3-NB590]
- NanoBRET Fold Response (FZD8; FZD8, 0.1μM): 1.01
- NanoBRET Fold Response (FZD8; FZD8, 1μM): 1.02
- NanoBRET Fold Response (NMUR2; NMUR2, 0.1μM): 1.06
- NanoBRET Fold Response (NMUR2; NMUR2, 1μM): 1.08
- NanoBRET Fold Response (PTGER3; PTGER3, 0.1μM): 1.04
- NanoBRET Fold Response (PTGER3; PTGER3, 1μM): 1.08
- NanoBRET Fold Response (FZD6; FZD6, 0.1μM): 1.06
- NanoBRET Fold Response (FZD6; FZD6, 1μM): 1.01

- NanoBRET Fold Response (FZD8; FZD8, 0.1μM tracer): 1.02
- NanoBRET Fold Response (FZD8; FZD8, 1μM tracer): 1.00
- NanoBRET Fold Response (NMUR2; NMUR2, 0.1μM tracer): 0.93
- NanoBRET Fold Response (NMUR2; NMUR2, 1μM tracer): 1.01
- NanoBRET Fold Response (PTGER3; PTGER3, 0.1μM tracer): 1.03
- NanoBRET Fold Response (PTGER3; PTGER3, 1μM tracer): 1.12
- NanoBRET Fold Response (FZD6; FZD6, 0.1μM tracer): 0.99
- NanoBRET Fold Response (FZD6; FZD6, 1μM tracer): 0.93
SMILES: O=C(CCOCCOCCOCCOCCNC(=O)CCc1ccc2n1[B-](F)(F)[N+]1=C(c3ccc[nH]3)C=CC1=C2)NCCCN1CCN(C2=Nc3cc(Cl)ccc3Nc3ccccc32)CC1 [Clozapine-a-2-NB590]
